Data taken from PubChem BioAssay AID248 (DTP/NCI, 2004).
Values joined by “and” are separate entries in the source; they are usually repeats but may differ in a detail not shown here. Identical values can stand only once. Inconclusive results and toxic doses are left out. Cut-off read from the data, not from the text of the source: active = T/C of 150% or more; inactive = T/C below 125%.

Test system: L1210 leukemia ip in BDF1 mice, survival T/C
Assay: NCI In Vivo Anticancer Drug Screen. Data for tumor model L1210 Leukemia (intraperitoneal) in B6D2F1 (BDF1) mice
Conditions: endpoint: mean survival time, higher = longer survival
Outline: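 Each compound was tested against a transplantable tumor grown in mice. The endpoint was survival, with treated animals benchmarked against vehicle controls as a simple ratio.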

[1] = dose: 100.0 mg/kg/injection, schedule: Q04DX003 (ip), vehicle: Klucel (hydroxypropylcellulose) (HPC)
[2] = dose: 200.0 mg/kg/injection, schedule: Q04DX003 (ip), vehicle: Klucel (hydroxypropylcellulose) (HPC)
[3] = dose: 100.0 mg/kg/injection, schedule: Q04DX003 (ip), vehicle: saline
[4] = dose: 200.0 mg/kg/injection, schedule: Q04DX003 (ip), vehicle: saline
[5] = dose: 400.0 mg/kg/injection, schedule: Q04DX003 (ip), vehicle: saline
[6] = dose: 100.0 mg/kg/injection, schedule: Q01DX009 (ip), vehicle: Klucel (hydroxypropylcellulose) (HPC)
[7] = dose: 100.0 mg/kg/injection, schedule: Q04DX003 (ip), vehicle: other
[8] = dose: 200.0 mg/kg/injection, schedule: Q01DX009 (ip), vehicle: Klucel (hydroxypropylcellulose) (HPC)
[9] = dose: 200.0 mg/kg/injection, schedule: Q04DX003 (ip), vehicle: other
[10] = dose: 400.0 mg/kg/injection, schedule: Q01DX009 (ip), vehicle: Klucel (hydroxypropylcellulose) (HPC)
[11] = dose: 400.0 mg/kg/injection, schedule: Q04DX003 (ip), vehicle: other
[12] = dose: 50.0 mg/kg/injection, schedule: Q01DX001 (ip), vehicle: saline
[13] = dose: 100.0 mg/kg/injection, schedule: Q01DX001 (ip), vehicle: saline
[14] = dose: 200.0 mg/kg/injection, schedule: Q01DX001 (ip), vehicle: saline
[15] = dose: 400.0 mg/kg/injection, schedule: Q01DX001 (ip), vehicle: saline
[16] = dose: 100.0 mg/kg/injection, schedule: Q01DX001 (ip), vehicle: Klucel (hydroxypropylcellulose) (HPC)
[17] = dose: 200.0 mg/kg/injection, schedule: Q01DX001 (ip), vehicle: Klucel (hydroxypropylcellulose) (HPC)
[18] = dose: 400.0 mg/kg/injection, schedule: Q01DX001 (ip), vehicle: Klucel (hydroxypropylcellulose) (HPC)
[19] = dose: 400.0 mg/kg/injection, schedule: Q04DX003 (ip), vehicle: Klucel (hydroxypropylcellulose) (HPC)

Measured: T/C

COc1ccc([N+](=O)[O-])cc1Br
inactive: dose: 100.0 mg/kg/injection, schedule: Q01DX009 (ip), vehicle: saline with Tween-80 100 % of control | dose: 200.0 mg/kg/injection, schedule: Q01DX009 (ip), vehicle: saline with Tween-80 96 % of control | dose: 400.0 mg/kg/injection, schedule: Q01DX009 (ip), vehicle: saline with Tween-80 98 % of control

C=C1N(c2ccc(OC)c(OC)c2)C(=O)OC12CCCCC2
inactive: dose: 25.0 mg/kg/injection, schedule: Q04DX003 (ip), vehicle: Klucel (hydroxypropylcellulose) (HPC) 93 % of control | dose: 50.0 mg/kg/injection, schedule: Q04DX003 (ip), vehicle: Klucel (hydroxypropylcellulose) (HPC) 93 % of control | [1] 102 % of control | [2] 96 % of control

O=C(NNCCO)C(O)C(O)C(O)C(O)CO (stereo unspecified)
inactive: [3] 97 % of control | [4] 97 % of control | [5] 97 % of control

O=[N+]([O-])c1cccc(Oc2ncccc2[N+](=O)[O-])c1
inactive: [6] 95 % of control | [7] 105 % of control | [8] 102 % of control | [9] 103 % of control | [10] 94 % of control | [11] 100 % of control

Cc1ncc(Br)c(C(=O)O)n1
inactive: [12] 101 % of control | [13] 98 % of control | [6] 106 % of control | [14] 95 % of control | [8] 113 % of control | [15] 90 % of control | [10] 110 % of control

Cc1cc2c([N+](=O)[O-])c3ccc(N4CCCCC4)nn3c2n[n+]1[O-]
inactive: dose: 31.3 mg/kg/injection, schedule: Q04DX002 (ip), vehicle: Klucel (hydroxypropylcellulose) (HPC) 95 % of control | dose: 62.5 mg/kg/injection, schedule: Q04DX002 (ip), vehicle: Klucel (hydroxypropylcellulose) (HPC) 111 % of control | dose: 125.0 mg/kg/injection, schedule: Q04DX002 (ip), vehicle: Klucel (hydroxypropylcellulose) (HPC) 122 % of control

COc1cc([N+](=O)[O-])c(Cl)cc1NS(=O)(=O)c1ccc(C)cc1
inactive: [16] 98 % of control | [17] 95 % of control | [18] 90 % of control

CCCCCCCCCCCCCCCOc1ccc(C)cc1
inactive: [1] 93 % of control | [2] 101 % of control | [19] 95 % of control

CC1(C)C2CCC1(C)C(OCCCN=C(N)CSS(=O)(=O)O)C2 (stereo unspecified)
inactive: dose: 1.5 mg/kg/injection, schedule: Q04DX002 (ip), vehicle: Klucel (hydroxypropylcellulose) (HPC) 113 % of control | dose: 3.0 mg/kg/injection, schedule: Q04DX002 (ip), vehicle: Klucel (hydroxypropylcellulose) (HPC) 100 % of control | dose: 6.0 mg/kg/injection, schedule: Q04DX002 (ip), vehicle: Klucel (hydroxypropylcellulose) (HPC) 91 % of control

O=c1cc(-c2ccccc2)oc2ccccc12
inactive: [6] 97 % of control | [8] 92 % of control | [10] 108 % of control

COC1CCC(OC)(C(=O)NN)O1 (stereo unspecified)
inactive: [13] 95 % of control | [14] 95 % of control | [15] 102 % of control

CCOC(=O)C(=CC(CC)C(=O)OCC)C(=O)OCC (stereo unspecified) (tested in a mixture with another compound)
inactive: [3] 93 % of control | [4] 93 % of control | [5] 89 % of control

O=C(C1=CC(c2ccccc2)=Nc2ccccc2N1)c1ccccc1
inactive: [7] 89 % of control | [9] 110 % of control | [11] 94 % of control

COc1ccc(C(=O)C=C(C(F)(F)F)C(F)(F)F)cc1
inactive: dose: 25.0 mg/kg/injection, schedule: Q04DX003 (ip), vehicle: saline with Tween-80 93 % of control | dose: 50.0 mg/kg/injection, schedule: Q04DX003 (ip), vehicle: saline with Tween-80 102 % of control | dose: 100.0 mg/kg/injection, schedule: Q04DX003 (ip), vehicle: saline with Tween-80 100 % of control and 102 % of control

Cc1cccc(C(=O)Cl)c1[N+](=O)[O-]
inactive: dose: 50.0 mg/kg/injection, schedule: Q01DX001 (ip), vehicle: carboxymethylcellulose (CMC) 95 % of control | dose: 100.0 mg/kg/injection, schedule: Q01DX001 (ip), vehicle: carboxymethylcellulose (CMC) 93 % of control | dose: 200.0 mg/kg/injection, schedule: Q01DX001 (ip), vehicle: carboxymethylcellulose (CMC) 90 % of control | dose: 400.0 mg/kg/injection, schedule: Q01DX001 (ip), vehicle: carboxymethylcellulose (CMC) 95 % of control

COC1(OC)CC2C(=O)CCCC21OC(C)=O (stereo unspecified)
inactive: dose: 75.0 mg/kg/injection, schedule: Q04DX002 (ip), vehicle: saline 93 % of control | dose: 150.0 mg/kg/injection, schedule: Q04DX002 (ip), vehicle: saline 103 % of control | dose: 300.0 mg/kg/injection, schedule: Q04DX002 (ip), vehicle: saline 107 % of control

CCCCCCCCCCCC[N+](C)(C)CCn1cnc2c(N)ncnc21
inactive: dose: 6.25 mg/kg/injection, schedule: Q04DX003 (ip), vehicle: saline 106 % of control | dose: 12.5 mg/kg/injection, schedule: Q04DX003 (ip), vehicle: saline 109 % of control | dose: 25.0 mg/kg/injection, schedule: Q04DX003 (ip), vehicle: saline 103 % of control

O=C(O)c1ccc(N2C(=O)c3ccccc3C2=O)cc1[N+](=O)[O-]
inactive: dose: 100.0 mg/kg/injection, schedule: Q01DX009 (ip), vehicle: saline 103 % of control | [3] 100 % of control | dose: 200.0 mg/kg/injection, schedule: Q01DX009 (ip), vehicle: saline 108 % of control | [4] 104 % of control | dose: 400.0 mg/kg/injection, schedule: Q01DX009 (ip), vehicle: saline 107 % of control | [5] 107 % of control

CN(C)N=Nc1ccccc1[N+](=O)[O-]
inactive: dose: 30.0 mg/kg/injection, schedule: Q01DX009 (ip), vehicle: saline with Tween-80 99 % of control | [12] 103 % of control | dose: 53.0 mg/kg/injection, schedule: Q01DX009 (ip), vehicle: saline with Tween-80 118 % of control | dose: 60.0 mg/kg/injection, schedule: Q01DX009 (ip), vehicle: saline with Tween-80 106 % of control | [13] 101 % of control | dose: 119.0 mg/kg/injection, schedule: Q04DX003 (ip), vehicle: saline 107 % of control | dose: 120.0 mg/kg/injection, schedule: Q01DX009 (ip), vehicle: saline with Tween-80 113 % of control | dose: 178.0 mg/kg/injection, schedule: Q04DX003 (ip), vehicle: saline 118 % of control | dose: 267.0 mg/kg/injection, schedule: Q04DX003 (ip), vehicle: saline 92 % of control

Cc1oncc1/C=C/c1ccon1
inactive: [7] 96 % of control | [9] 91 % of control

O=C(Nc1ccc([N+](=O)[O-])cn1)Nc1ccccc1F
inactive: [16] 92 % of control | [6] 101 % of control and 90 % of control | [1] 99 % of control | [17] 89 % of control | [8] 100 % of control and 87 % of control | [2] 105 % of control | [18] 92 % of control | [10] 101 % of control and 90 % of control | [19] 99 % of control
